Test system: heartworm microfillaria
Experiment: Heartworm microfillaria mortality test (Test Example 1)
Format: in vitro
Conditions: final concentration 100 μg/ml in culture broth; after culturing for 7 days; microfillaria collected from infected dogs
Method: Compound Nos. 32, 53, 54 and 55 were each dissolved in dimethyl sulfoxide to 10 mg/ml. These dimethyl sulfoxide solutions were diluted 100-fold to a final concentration of 100 μg/ml with the culture broth containing heartworm microfillaria collected from dogs infected with heartworm. The mortality rate of heartworm microfillaria was investigated after culturing for 7 days.
As a result, the mortality rate was 100% in each of the treatment groups.

Structure (SMILES) | mortality rate of heartworm microfillaria [%]
CCn1c(-c2c(F)cccc2F)c(-c2cc(OC)cc(OC)c2Cl)ccc1=O [Compound 32] | 100
CCn1c(-c2c(F)cccc2F)c(-c2cc(OC)ccc2Cl)ccc1=O [Compound 53, 5-(2-chloro-5-methoxyphenyl)-6-(2,6-difluorophenyl)-1-ethylpyridine-2(1H)-one] | 100
CCn1c(-c2c(F)cccc2F)c(-c2cc(OC)ccc2Cl)cc(Cl)c1=O [Compound 54, 3-chloro-5-(2-chloro-5-methoxyphenyl)-6-(2,6-difluorophenyl)-1-ethylpyridine-2(1H)-one] | 100
CCn1c(-c2c(F)cccc2F)c(-c2cc(OC)ccc2Cl)cc(Br)c1=O [Compound 55] | 100
